Laboratory results as given in patent US5190741A, “Agents for diagnosing and treating melanomas, aromatic halogenated derivatives usable as such agents and their preparation” (Institut National de la Sante et de la Recherche Medicale …, priority 1989, dated 1993).
Where two headings read alike, the source gives them in different places.

Assays:
[1] = test system: pulmonary colonies of B16 melanoma; assay: Autoradiograms, pulmonary metastasing colonies after i.v. B16 cells; assay type: in vivo, mouse; settings: 1 to 7 hours after injection
Experimental: The autoradiograms are carried out in mice bearing grafted melanomas:
The animals bearing grafted tumors receive the labelled compounds in the form of the hydrochloride in saline solution (3.7 to 5×10^5 Bq/animal) in a caudal vein. At different time intervals after the administration of the compounds (from 15 minutes to 24 hours) the mice are anesthetized with ether and plunged into liquid nitrogen.
30 μm sections, parallel to a sagittal plane, are prepared in a freezing microtome (TS 260, SLEE) according to the protocol described by Ullberg. The sections, dehydrated in the cold, are applied to sensitive films, Ultrofim ^3 H (LKB, 2208-190) or Hyperfilm ^3 H (Amersham, RPN 535).
After the i.v. injection of B16 melanoma cells the appearance of predominantly pulmonary metastasing colonies is noticed.

[2] = Tissue distribution in Swiss nu/nu SSCUP mice bearing Dau; assay type: in vivo, human; settings: mouse, iv, 3 umol/animal
Experimental: The study of the tissue distribution of the ^125 I labelled compounds was performed in mice bearing grafted melanomas (cf. autoradiograms above). […] The animals are sacrificed at different time intervals of 1 to 24 hours after the injection. The blood is collected and the principal organs are excised. Aliquots are weighed and the radioactivity of the samples is measured in a […] 1191 counter (analytic tracer). The counting yield for iodine 125 is 60%. The results are expressed: as a percentage of the injected dose bound per g of tissue (% ID/g); in the form of the ratios [formula] This ratio reflects more precisely the selectivity of a molecule for an organ (tables 2, 4, 6, 8, 10 and 12).

[3] = intestine, read-out: intestine % ID/g
[4] = kidney, read-out: kidney % ID/g
[5] = muscle, read-out: muscle % ID/g
[6] = pancreas, read-out: pancreas % ID/g
[7] = plasma, read-out: plasma % ID/g
[8] = spleen, read-out: spleen % ID/g
[9] = stomach, read-out: stomach % ID/g
[10] = submaxillary glands, read-out: submaxillary glands % ID/g

## CCNCCNC(=O)c1ccc(I)cc1 [Derivative B, N-(2-ethylaminoethyl) 4-iodo benzamide]
[1]
  visualization of pulmonary colonies: readily visualized
[2]; blood, read-out: blood % ID/g
  tissue uptake at 1 h: 0.89 %ID/g
  tissue uptake at 2 h: 0.93 %ID/g
  tissue uptake at 4 h: 0.3 %ID/g
  tissue uptake at 6 h: 0.53 %ID/g
  tissue uptake at 24 h: 0.009 %ID/g
  tissue uptake at 8 h: 0.11 %ID/g
  tissue uptake at 12 h: 0.015 %ID/g
[2]; brain, read-out: brain % ID/g
  tissue uptake at 1 h: 1.28 %ID/g
  tissue uptake at 2 h: 1.25 %ID/g
  tissue uptake at 4 h: 0.63 %ID/g
  tissue uptake at 6 h: 0.22 %ID/g
  tissue uptake at 24 h: 0.002 %ID/g
  tissue uptake at 8 h: 0.14 %ID/g
  tissue uptake at 12 h: 0.01 %ID/g
[2]; eye, read-out: eye % ID/g
  tissue uptake at 1 h: 0.51 %ID/g
  tissue uptake at 2 h: 0.5 %ID/g
  tissue uptake at 4 h: 0.21 %ID/g
  tissue uptake at 6 h: 0.19 %ID/g
  tissue uptake at 24 h: 0.008 %ID/g
  tissue uptake at 8 h: 0.06 %ID/g
  tissue uptake at 12 h: 0.01 %ID/g
[2]; [3]
  tissue uptake at 1 h: 3.1 %ID/g
  tissue uptake at 2 h: 2.57 %ID/g
  tissue uptake at 4 h: 1.19 %ID/g
  tissue uptake at 6 h: 1.05 %ID/g
  tissue uptake at 8 h: 0.36 %ID/g
  tissue uptake at 12 h: 0.05 %ID/g
  tissue uptake at 24 h: 0.01 %ID/g
[2]; [4]
  tissue uptake at 1 h: 8.15 %ID/g
  tissue uptake at 2 h: 6.17 %ID/g
  tissue uptake at 4 h: 2.51 %ID/g
  tissue uptake at 6 h: 1.07 %ID/g
  tissue uptake at 24 h: 0.04 %ID/g
  tissue uptake at 8 h: 0.42 %ID/g
  tissue uptake at 12 h: 0.08 %ID/g
[2]; liver, read-out: liver % ID/g
  tissue uptake at 1 h: 4.95 %ID/g
  tissue uptake at 2 h: 3.16 %ID/g
  tissue uptake at 4 h: 1.52 %ID/g
  tissue uptake at 6 h: 0.74 %ID/g
  tissue uptake at 24 h: 0.19 %ID/g
  tissue uptake at 8 h: 0.63 %ID/g
  tissue uptake at 12 h: 0.2 %ID/g
[2]; lungs, read-out: lungs % ID/g
  tissue uptake at 1 h: 5.35 %ID/g
  tissue uptake at 2 h: 5.56 %ID/g
  tissue uptake at 4 h: 2.63 %ID/g
  tissue uptake at 6 h: 0.93 %ID/g
  tissue uptake at 8 h: 0.43 %ID/g
  tissue uptake at 12 h: 0.04 %ID/g
  tissue uptake at 24 h: 0.02 %ID/g
[2]; [5]
  tissue uptake at 1 h: 1.04 %ID/g
  tissue uptake at 2 h: 6.86 %ID/g
  tissue uptake at 4 h: 0.41 %ID/g
  tissue uptake at 6 h: 0.12 %ID/g
  tissue uptake at 24 h: 0.002 %ID/g
  tissue uptake at 8 h: 0.07 %ID/g
  tissue uptake at 12 h: 0.008 %ID/g
[2]; [6]
  tissue uptake at 1 h: 2.86 %ID/g
  tissue uptake at 2 h: 2.13 %ID/g
  tissue uptake at 4 h: 0.83 %ID/g
  tissue uptake at 6 h: 0.4 %ID/g
  tissue uptake at 8 h: 0.14 %ID/g
  tissue uptake at 12 h: 0.08 %ID/g
  tissue uptake at 24 h: 0.01 %ID/g
[2]; [7]
  tissue uptake at 1 h: 0.71 %ID/g
  tissue uptake at 2 h: 0.85 %ID/g
  tissue uptake at 4 h: 0.28 %ID/g
  tissue uptake at 6 h: 0.61 %ID/g
  tissue uptake at 24 h: 0.009 %ID/g
  tissue uptake at 8 h: 0.13 %ID/g
  tissue uptake at 12 h: 0.02 %ID/g
[2]; [8]
  tissue uptake at 1 h: 2.54 %ID/g
  tissue uptake at 2 h: 2.02 %ID/g
  tissue uptake at 4 h: 0.62 %ID/g
  tissue uptake at 6 h: 0.33 %ID/g
  tissue uptake at 8 h: 0.14 %ID/g
  tissue uptake at 12 h: 0.05 %ID/g
  tissue uptake at 24 h: 0.09 %ID/g
[2]; [9]
  tissue uptake at 1 h: 2.38 %ID/g
  tissue uptake at 2 h: 3.03 %ID/g
  tissue uptake at 4 h: 1.23 %ID/g
  tissue uptake at 6 h: 2 ± 0.253 %ID/g
  tissue uptake at 8 h: 0.58 %ID/g
  tissue uptake at 12 h: 0.1 %ID/g
  tissue uptake at 24 h: 0.02 %ID/g
[2]; [10]
  tissue uptake at 1 h: 4.28 %ID/g
  tissue uptake at 2 h: 4.14 %ID/g
  tissue uptake at 4 h: 1.68 %ID/g
  tissue uptake at 6 h: 2.74 %ID/g
  tissue uptake at 8 h: 0.39 %ID/g
  tissue uptake at 12 h: 0.04 %ID/g
  tissue uptake at 24 h: 0.02 %ID/g
[2]; tumor, read-out: tumor % ID/g
  tissue uptake at 1 h: 1.19 %ID/g
  tissue uptake at 2 h: 1.27 %ID/g
  tissue uptake at 4 h: 0.93 %ID/g
  tissue uptake at 6 h: 0.34 %ID/g
  tissue uptake at 24 h: 0.007 %ID/g
  tissue uptake at 8 h: 0.12 %ID/g
  tissue uptake at 12 h: 0.02 %ID/g
